Test results reported in patent US20170182033A1, “PHARMACEUTICAL COMPOSITIONS FOR EXTENDED RELEASE OF OXYCODONE AND ACETAMINOPHEN RESULTING IN A QUICK ONSET AND PROLONGED PERIOD OF ANALGESIA” (priority 2011, published 2017).

Legend:
[1] = Ethanol release testing at 100 rpm paddle speed (Example 29); format: physicochemical; settings: release from the formulation
hepatic GSH = settings: mice; 100 mg/kg to 600 mg/kg; cited from earlier work

SMILES: CC(=O)Nc1ccc(O)cc1 [acetaminophen]
- Percent Release, Mean ([1]; 0% Ethanol, 15 Min): 52.2%
- Percent Release, Mean ([1]; 0% Ethanol, 30 Min): 54.6%
- Percent Release, Mean ([1]; 0% Ethanol, 45 Min): 56.8%
- Percent Release, Mean ([1]; 0% Ethanol, 60 Min): 58.8%
- Percent Release, Mean ([1]; 0% Ethanol, 75 Min): 60.8%
- Percent Release, Mean ([1]; 0% Ethanol, 90 Min): 62.6%
- Percent Release, Mean ([1]; 0% Ethanol, 105 Min): 64.3%
- Percent Release, Mean ([1]; 0% Ethanol, 120 Min): 66.0%
- Percent Release, Mean ([1]; 0% Ethanol, 240 Min): 78.6%
- Percent Release, Mean ([1]; 0% Ethanol, 480 Min): 95.5%
- Percent Release, Mean ([1]; 5% Ethanol, 15 Min): 52.6%
- Percent Release, Mean ([1]; 5% Ethanol, 30 Min): 55.1%
- Percent Release, Mean ([1]; 5% Ethanol, 45 Min): 57.1%
- Percent Release, Mean ([1]; 5% Ethanol, 60 Min): 58.9%
- Percent Release, Mean ([1]; 5% Ethanol, 75 Min): 60.7%
- Percent Release, Mean ([1]; 5% Ethanol, 90 Min): 62.3%
- Percent Release, Mean ([1]; 5% Ethanol, 105 Min): 63.9%
- Percent Release, Mean ([1]; 5% Ethanol, 120 Min): 65.5%
- Percent Release, Mean ([1]; 5% Ethanol, 240 Min): 77.2%
- Percent Release, Mean ([1]; 5% Ethanol, 480 Min): 94.4%
- Percent Release, Mean ([1]; 10% Ethanol, 15 Min): 51.7%
- Percent Release, Mean ([1]; 10% Ethanol, 30 Min): 54.1%
- Percent Release, Mean ([1]; 10% Ethanol, 45 Min): 56.0%
- Percent Release, Mean ([1]; 10% Ethanol, 60 Min): 57.8%
- Percent Release, Mean ([1]; 10% Ethanol, 75 Min): 59.5%
- Percent Release, Mean ([1]; 10% Ethanol, 90 Min): 61.1%
- Percent Release, Mean ([1]; 10% Ethanol, 105 Min): 62.6%
- Percent Release, Mean ([1]; 10% Ethanol, 120 Min): 64.1%
- Percent Release, Mean ([1]; 10% Ethanol, 240 Min): 75.5%
- Percent Release, Mean ([1]; 10% Ethanol, 480 Min): 93.5%
- Percent Release, Mean ([1]; 20% Ethanol, 15 Min): 50.2%
- Percent Release, Mean ([1]; 20% Ethanol, 30 Min): 53.4%
- Percent Release, Mean ([1]; 20% Ethanol, 45 Min): 55.5%
- Percent Release, Mean ([1]; 20% Ethanol, 60 Min): 57.3%
- Percent Release, Mean ([1]; 20% Ethanol, 75 Min): 59.0%
- Percent Release, Mean ([1]; 20% Ethanol, 90 Min): 60.5%
- Percent Release, Mean ([1]; 20% Ethanol, 105 Min): 61.9%
- Percent Release, Mean ([1]; 20% Ethanol, 120 Min): 63.3%
- Percent Release, Mean ([1]; 20% Ethanol, 240 Min): 76.0%
- Percent Release, Mean ([1]; 20% Ethanol, 480 Min): 91.9%
- Percent Release, Mean ([1]; 40% Ethanol, 15 Min): 16.7%
- Percent Release, Mean ([1]; 40% Ethanol, 30 Min): 30.4%
- Percent Release, Mean ([1]; 40% Ethanol, 45 Min): 38.5%
- Percent Release, Mean ([1]; 40% Ethanol, 60 Min): 43.1%
- Percent Release, Mean ([1]; 40% Ethanol, 75 Min): 46.1%
- Percent Release, Mean ([1]; 40% Ethanol, 90 Min): 48.3%
- Percent Release, Mean ([1]; 40% Ethanol, 105 Min): 49.8%
- Percent Release, Mean ([1]; 40% Ethanol, 120 Min): 51.1%
- Percent Release, Mean ([1]; 40% Ethanol, 240 Min): 60.8%
- Percent Release, Mean ([1]; 40% Ethanol, 480 Min): 77.2%
- Onset of circulating hepatic GSH changes after administration (hepatic GSH): ≤ 15 min
